Results taken from US5932551A, “Substituted N-carboxyalkylpeptidyl derivatives as antidegenerative active agents” (Merck & Co., Inc., priority 1997, dated 1999).
pIC50, pKi: −log10 of the molar value.

Tests used:
Format in all cases: biochemical
[1] = target: T1, 72 kD Galatinase (gelatinase) (Homo sapiens, UniProt P08253); experiment: Inhibition of gelatinase-mediated cleavage of fluorogenic substrate Dnp-Pro-Leu-Gly-Leu-Trp-Ala-D-ArgNH2; settings: pH = 7.5
T1 sequence (P08253 110-660): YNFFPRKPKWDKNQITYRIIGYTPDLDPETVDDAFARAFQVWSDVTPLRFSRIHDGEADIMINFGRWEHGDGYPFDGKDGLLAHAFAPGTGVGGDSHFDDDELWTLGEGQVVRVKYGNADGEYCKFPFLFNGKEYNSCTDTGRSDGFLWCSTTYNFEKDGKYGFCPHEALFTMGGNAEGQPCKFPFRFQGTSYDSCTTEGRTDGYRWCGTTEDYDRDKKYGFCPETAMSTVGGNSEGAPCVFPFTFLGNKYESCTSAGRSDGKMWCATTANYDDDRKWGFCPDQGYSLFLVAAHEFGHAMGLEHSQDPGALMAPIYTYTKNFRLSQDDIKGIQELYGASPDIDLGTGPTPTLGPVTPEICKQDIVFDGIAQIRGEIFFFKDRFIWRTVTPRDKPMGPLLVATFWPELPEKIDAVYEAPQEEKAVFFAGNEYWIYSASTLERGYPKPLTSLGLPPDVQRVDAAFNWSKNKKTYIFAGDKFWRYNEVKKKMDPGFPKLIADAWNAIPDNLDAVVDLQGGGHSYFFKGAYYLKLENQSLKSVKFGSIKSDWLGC
Text: (§1) The peptide portion is herein designated SEQ ID No: 2:.

collagenase = target: T2, collagenase (Homo sapiens, UniProt P03956); experiment: Inhibition of collagenase cleavage of thioester peptide Ac-Pro-Leu-Gly-S-Leu-Leu-Gly-OC2H5; settings: read-out: Inhibition of Collagenase pH = 6.5 (IC50)
T2 sequence (P03956 100-469): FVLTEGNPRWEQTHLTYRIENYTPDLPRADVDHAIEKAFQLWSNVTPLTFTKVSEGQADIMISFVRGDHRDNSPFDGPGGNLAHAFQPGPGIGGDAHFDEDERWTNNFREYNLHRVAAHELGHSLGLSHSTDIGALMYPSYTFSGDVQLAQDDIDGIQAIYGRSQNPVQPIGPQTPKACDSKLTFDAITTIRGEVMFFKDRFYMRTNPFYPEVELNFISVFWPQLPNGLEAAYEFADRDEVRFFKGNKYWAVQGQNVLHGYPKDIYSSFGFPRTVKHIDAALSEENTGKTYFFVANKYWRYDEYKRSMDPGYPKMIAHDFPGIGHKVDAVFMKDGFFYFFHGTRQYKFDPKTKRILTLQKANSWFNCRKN
Text: as §1

stromelysin = stromelysin (Homo sapiens, UniProt P08254); experiment: Inhibition of stromelysin-mediated hydrolysis of substance P (HPLC-based assay); settings: pH = 7.5
Sequence of stromelysin (P08254 100-477): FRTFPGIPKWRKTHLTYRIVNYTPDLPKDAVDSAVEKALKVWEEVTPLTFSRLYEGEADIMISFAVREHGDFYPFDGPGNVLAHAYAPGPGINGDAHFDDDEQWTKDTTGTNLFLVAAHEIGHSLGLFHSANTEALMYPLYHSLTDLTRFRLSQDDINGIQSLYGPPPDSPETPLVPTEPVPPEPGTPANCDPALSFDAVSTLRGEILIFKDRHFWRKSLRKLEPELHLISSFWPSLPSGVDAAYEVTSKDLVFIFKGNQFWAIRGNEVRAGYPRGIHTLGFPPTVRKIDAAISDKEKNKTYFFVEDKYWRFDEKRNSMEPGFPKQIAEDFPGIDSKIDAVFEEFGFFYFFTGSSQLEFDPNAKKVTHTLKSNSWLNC

SMILES | pKi [1] | pIC50 (collagenase) | pIC50 (stromelysin)
CC(C)C[C@H](NC(=O)[C@H](CCc1ccccc1)N[C@H](C)C(=O)O)C(=O)Nc1ccccc1 [5a, N-[1(R)-Carboxy-ethyl]-α-(S)-(2-phenyl-ethyl)glycine-(L)-leucine, N-phenylamide] | 6.03 | 7.22 | 
CC(C)C[C@H](NC(=O)[C@H](CCc1ccccc1)N[C@H](CCCCN1C(=O)c2ccccc2C1=O)C(=O)O)C(=O)Nc1ccccc1 [5d] | 7.07 | 6.60 | 6.70
